# Data: US9085557B2, “Quinolylpiperazino substituted thiolactone compounds and process for the preparation thereof” (Council of Scientific and Industrial Research, priority 2010, dated 2015)
# System: M. tuberculosis H37Rv (ATCC 27294)
# Experiment: MIC determination by broth dilution against M. tuberculosis H37Rv
# Assay type: cell-based, Mycobacterium tuberculosis
# Details: M. tuberculosis H37Rv, broth dilution, 3 weeks at 37° C., read visually (no turbidity)
row,SMILES,MIC
1,"CC1=C(OCCCCCN2CCN(c3ccnc4cc(C(F)(F)F)ccc34)CC2)C(C)SC1=O (stereo not shown) [Compound 3a, 3,5-dimethyl-4-[(5-4-[7-(trifluoromethyl)-4-quinolyl]piperazinopentyl)oxy]-5H-thiophen-2-one]",16 µg/mL
2,"CC1=C(OCCCCCCN2CCN(c3ccnc4cc(C(F)(F)F)ccc34)CC2)C(C)SC1=O (stereo not shown) [Compound 3b, 3,5-dimethyl-4-[(6-4-[7-(trifluoromethyl)-4-quinolyl]piperazinohexyl)oxy]-5H-thiophen-2-one]",16 µg/mL
3,"CC1=C(OCCCCCCCCN2CCN(c3ccnc4cc(C(F)(F)F)ccc34)CC2)C(C)SC1=O (stereo not shown) [Compound 3c, 3,5-dimethyl-4-[(8-4-[7-(trifluoromethyl)-4-quinolyl]piperazinooctyl)oxy]-5H-thiophen-2-one]",16 µg/mL
4,"CC1=C(OCCCCCCCCCN2CCN(c3ccnc4cc(C(F)(F)F)ccc34)CC2)C(C)SC1=O (stereo not shown) [Compound 3d, 3,5-dimethyl-4-[(9-4-[7-(trifluoromethyl)-4-quinolyl]piperazinononyl)oxy]-5H-thiophen-2-one]",16 µg/mL
5,"CC1=C(OCCCCCCCCCCN2CCN(c3ccnc4cc(C(F)(F)F)ccc34)CC2)C(C)SC1=O (stereo not shown) [Compound 3e, 3,5-dimethyl-4-[(10-4-[7-(trifluoromethyl)-4-quinolyl]piperazinodecyl)oxy]-5H-thiophen-2-one]",16 µg/mL
6,"CC1=C(OCCCCCN2CCCN(c3ccnc4cc(C(F)(F)F)ccc34)CC2)C(C)SC1=O (stereo not shown) [Compound 5a, 3,5-dimethyl-4-[(5-4-[7-(trifluoromethyl)-4-quinolyl]-1,4-diazepan-1-ylpentyl)oxy]-5H-thiophen-2-one]",16 µg/mL
7,"CC1=C(OCCCCCCN2CCCN(c3ccnc4cc(C(F)(F)F)ccc34)CC2)C(C)SC1=O (stereo not shown) [Compound 5b, 3,5-dimethyl-4-[(6-4-[7-(trifluoromethyl)-4-quinolyl]-1,4-diazepan-1-ylhexyl)oxy]-5H-thiophen-2-one]",16 µg/mL
8,"CC1=C(OCCCCCCCCN2CCCN(c3ccnc4cc(C(F)(F)F)ccc34)CC2)C(C)SC1=O (stereo not shown) [Compound 5c, 3,5-dimethyl-4-[(8-4-[7-(trifluoromethyl)-4-quinolyl]-1,4-diazepan-1-yloctyl)oxy]-5H-thiophen-2-one]",16 µg/mL
9,"CC1=C(OCCCCCCCCCN2CCCN(c3ccnc4cc(C(F)(F)F)ccc34)CC2)C(C)SC1=O (stereo not shown) [Compound 5d, 3,5-dimethyl-4-[(9-4-[7-(trifluoromethyl)-4-quinolyl]-1,4-diazepan-1-ylnonyl)oxy]-5H-thiophen-2-one]",16 µg/mL
10,"CC1=C(OCCCCCCCCCCN2CCCN(c3ccnc4cc(C(F)(F)F)ccc34)CC2)C(C)SC1=O (stereo not shown) [Compound 5e, 3,5-dimethyl-4-[(10-4-[7-(trifluoromethyl)-4-quinolyl]-1,4-diazepan-1-yldecyl)oxy]-5H-thiophen-2-one]",8 µg/mL
11,"CC1=C(OCCCCCCCCCCCCN2CCCN(c3ccnc4cc(C(F)(F)F)ccc34)CC2)C(C)SC1=O (stereo not shown) [Compound 5f, 3,5-dimethyl-4-[(12-4-[7-(trifluoromethyl)-4-quinolyl]-1,4-diazepan-1-yldodecyl)oxy]-5H-thiophen-2-one]",8 µg/mL
12,"C=C/C(C)=C/[C@@]1(C)SC(=O)C(C)=C1O [Thiolactomycin, reference compound]",25 µg/mL

# Same assay, conditions: Mycobacterium tuberculosis, 504 h; M. tuberculosis H37Rv, broth dilution, 3 weeks at 37° C., read visually (no turbidity); read-out: MIC
row,SMILES,MIC
1,"CC1=C(OCCCCCN2CCN(c3ccnc4cc(Cl)ccc34)CC2)C(C)SC1=O (stereo not shown) [Compound 4a, 3,5-dimethyl-4-(5-[4-(7-chloro-4-quinolyl)piperazino]pentyloxy)-5H-thiophen-2-one]",16 µg/mL
2,"CC1=C(OCCCCCCN2CCN(c3ccnc4cc(Cl)ccc34)CC2)C(C)SC1=O (stereo not shown) [Compound 4b, 3,5-dimethyl-4-(6-[4-(7-chloro-4-quinolyl)piperazino]hexyloxy)-5H-thiophen-2-one]",16 µg/mL
3,"CC1=C(OCCCCCCCCN2CCN(c3ccnc4cc(Cl)ccc34)CC2)C(C)SC1=O (stereo not shown) [Compound 4c, 3,5-dimethyl-4-(8-[4-(7-chloro-4-quinolyl)piperazino]octyloxy)-5H-thiophen-2-one]",8 µg/mL
4,"CC1=C(OCCCCCCCCCN2CCN(c3ccnc4cc(Cl)ccc34)CC2)C(C)SC1=O (stereo not shown) [Compound 4d, 3,5-dimethyl-4-(9-[4-(7-chloro-4-quinolyl)piperazino]nonyloxy)-5H-thiophen-2-one]",8 µg/mL
5,"CC1=C(OCCCCCCCCCCN2CCN(c3ccnc4cc(Cl)ccc34)CC2)C(C)SC1=O (stereo not shown) [Compound 4e, 3,5-dimethyl-4-(10-[4-(7-chloro-4-quinolyl)piperazino]decyloxy)-5H-thiophen-2-one]",8 µg/mL
6,"CC1=C(OCCCCCCCCCCCCN2CCN(c3ccnc4cc(Cl)ccc34)CC2)C(C)SC1=O (stereo not shown) [Compound 4f, 3,5-dimethyl-4-(12-[4-(7-chloro-4-quinolyl)piperazino]dodecyloxy)-5H-thiophen-2-one]",8 µg/mL
7,"CC1=C(OCCCCCN2CCCN(c3ccnc4cc(Cl)ccc34)CC2)C(C)SC1=O (stereo not shown) [Compound 6a, 3,5-dimethyl-4-(5-[4-(7-chloro-4-quinolyl)-1,4-diazepan-1-yl]pentyloxy)-5H-thiophen-2-one]",16 µg/mL
8,"CC1=C(OCCCCCCN2CCCN(c3ccnc4cc(Cl)ccc34)CC2)C(C)SC1=O (stereo not shown) [Compound 6b, 3,5-dimethyl-4-(6-[4-(7-chloro-4-quinolyl)-1,4-diazepan-1-yl]hexyloxy)-5H-thiophen-2-one]",8 µg/mL
9,"CC1=C(OCCCCCCCCN2CCCN(c3ccnc4cc(Cl)ccc34)CC2)C(C)SC1=O (stereo not shown) [Compound 6c, 3,5-dimethyl-4-(8-[4-(7-chloro-4-quinolyl)-1,4-diazepan-1-yl]octyloxy)-5H-thiophen-2-one]",16 µg/mL
10,"CC1=C(OCCCCCCCCCN2CCCN(c3ccnc4cc(Cl)ccc34)CC2)C(C)SC1=O (stereo not shown) [Compound 6d, 3,5-dimethyl-4-(9-[4-(7-chloro-4-quinolyl)-1,4-diazepan-1-yl]nonyloxy)-5H-thiophen-2-one]",8 µg/mL
11,"CC1=C(OCCCCCCCCCCN2CCCN(c3ccnc4cc(Cl)ccc34)CC2)C(C)SC1=O (stereo not shown) [Compound 6e, 3,5-dimethyl-4-(10-[4-(7-chloro-4-quinolyl)-1,4-diazepan-1-yl]decyloxy)-5H-thiophen-2-one]",16 µg/mL
12,"CC1=C(OCCCCCCCCCCCCN2CCCN(c3ccnc4cc(Cl)ccc34)CC2)C(C)SC1=O (stereo not shown) [Compound 6f, 3,5-dimethyl-4-(12-[4-(7-chloro-4-quinolyl)-1,4-diazepan-1-yl]dodecyloxy)-5H-thiophen-2-one]",4 µg/mL
13,"NNC(=O)c1ccncc1 [Isoniazid, reference compound]",0.5 µg/mL
14,"C=C/C(C)=C/[C@@]1(C)SC(=O)C(C)=C1O [Thiolactomycin, reference compound]",25 µg/mL

# System: M. tuberculosis XDR-1 (XDR- strain)
# Experiment: microbe, parasite or virus in culture
# Assay type: cell-based, Mycobacterium tuberculosis
# Details: Mycobacterium tuberculosis, 504 h
row,SMILES,MIC
1,"NNC(=O)c1ccncc1 [Isoniazid, reference compound]",0.5 µg/mL
2,"C=C/C(C)=C/[C@@]1(C)SC(=O)C(C)=C1O [Thiolactomycin, reference compound]",25 µg/mL

# System: M. tuberculosis -617 (MDR- strain)
# Experiment: microbe, parasite or virus in culture
# Assay type: cell-based, Mycobacterium tuberculosis
# Details: Mycobacterium tuberculosis, 504 h
row,SMILES,MIC
1,"NNC(=O)c1ccncc1 [Isoniazid, reference compound]",128 µg/mL
2,"C=C/C(C)=C/[C@@]1(C)SC(=O)C(C)=C1O [Thiolactomycin, reference compound]",25 µg/mL

# System: M. tuberculosis H37Rv
# Experiment: In vivo efficacy in murine model of M. tuberculosis H37Rv infection
# Set-up: species or system mice (BALB/c)
# Details: BALB/c mice, intranasal infection, treatment from 1 week post infection, PO once daily for 4 weeks; RIF 20 mg/kg, 3f 25 mg/kg
# Experimental: The Compound 3f used in this study ([…]). The compound 3f was tested in vivo at 25 mg/kg. Rifampicin at 20 mg/kg was also tested as positive control. For in vivo studies compound and rifampicin was dissolved in pure DMSO and formulation was prepared 50% PEG in water for oral administration. The final concentration of DMSO was less than 0.1% v/v.
# The institutional animal Ethics committee of the Indian Institute of Integrative Medicine (CSIR, Jammu) approved all experimental protocols with animals and the use of animals. The animals were bred and maintained under standard husbandry conditions; viz. humidity, temperature (25±2° C.). 8-week-old female (BALB/c) mice 20-22 gm by weight were used for the efficacy studies. Animals were allowed 1 week of acclimation before intake into experimental studies. Feed and water were given ad libitum.
# Infection of M. tuberculosis:
# M. tuberculosis (H37Rv) for infection was grown by the culturing of bacteria from Lowenstein-Jensen slant in Middlebrooke 7H9 medium on a rotary shaker for 10 days at 37° C. […] The mice were sacrificed after week post infection (early control), and bacterial numbers in the lungs were determined by macerating the organs (lung) and plating serial tenfold serial dilution on Middlebrook 7H10 agar plates in triplicates. […]
# Eight infected mice were sacrificed from the control group 7 day after the infection (before the initiation of treatment) to obtain the initial CFU load of M. tuberculosis H37Rv at the initiation of treatment. […] Viable bacteria were quantitated by plating 10-fold serial dilutions in duplicates on Middlebrook, 7H10 agar supplemented with 10% OADC (oleic acid albumin dextrose catalase, Becton Dickinson, Sparks, Md.) and incubated at 37° C. in 5% CO2 for 4-6 weeks. CFU per organ sample was counted and expressed as log10 CFU per organ. CFU during in-vivo studies were determined on Middlebrook 7H10 plates supplement with 10% OADC containing Vancomycin 10 μg/ml, Amphoterecin 10 μg/ml, Nalidaxic acid 25 μg/ml. […]
row,SMILES,Log10 CFU/left Lung (mean ± SD)
1,"CO[C@H]1/C=C/O[C@@]2(C)Oc3c(C)c(O)c4c(O)c(c(/C=N/N5CCN(C)CC5)c(O)c4c3C2=O)NC(=O)/C(C)=C\C=C\[C@H](C)[C@H](O)[C@@H](C)[C@@H](O)[C@@H](C)[C@H](OC(C)=O)[C@@H]1C [RIF, Rifampicin, reference compound]",2.0 ± 0.41 Log10 CFU/left Lung
